Data reported in PubChem BioAssay AID1963973 (Molecular Pharmacology Branch, DTP, NCI, 2024).

System: 883617-216-R-J1-PDC tumor spheroids, viability
Experiment: Anticancer human tumor 883617-216-R-J1-PDC patient-derived bladder carcinoma cell line growth inhibition [PI3K]
Conditions: spheroids with HUVEC and MSC; for IC50: curve of first compound; for viability, T/C: stronger effect = lower value
Outline: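 Three cell types, namely tumor cells, endothelial cells and mesenchymal stem cells, formed each spheroid. Combinations with four PI3K inhibitors were screened at clinically achievable concentrations decreasing by half-log, and spheroid viability was recorded.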

[1] = second compound 0.0316 µM, first compound 0.0316 µM
[2] = second compound 0.0316 µM, first compound 0.1 µM
[3] = second compound 0.0316 µM, first compound 0.316 µM
[4] = second compound 0.0316 µM, first compound 1 µM
[5] = second compound 0.0316 µM, first compound 3.16 µM
[6] = second compound 0.0316 µM, first compound 10 µM
[7] = second compound 0.1 µM, first compound 0.0316 µM
[8] = second compound 0.1 µM, first compound 0.1 µM
[9] = second compound 0.1 µM, first compound 0.316 µM
[10] = second compound 0.1 µM, first compound 1 µM
[11] = second compound 0.1 µM, first compound 3.16 µM
[12] = second compound 0.1 µM, first compound 10 µM
[13] = second compound 0.316 µM, first compound 0.0316 µM
[14] = second compound 0.316 µM, first compound 0.1 µM
[15] = second compound 0.316 µM, first compound 0.316 µM
[16] = second compound 0.316 µM, first compound 1 µM
[17] = second compound 0.316 µM, first compound 3.16 µM
[18] = second compound 0.316 µM, first compound 10 µM
[19] = second compound 1 µM, first compound 0.0316 µM
[20] = second compound 1 µM, first compound 0.1 µM
[21] = second compound 1 µM, first compound 0.316 µM
[22] = second compound 1 µM, first compound 1 µM
[23] = second compound 1 µM, first compound 3.16 µM
[24] = second compound 1 µM, first compound 10 µM
[25] = second compound 3.16 µM, first compound 0.0316 µM
[26] = second compound 3.16 µM, first compound 0.1 µM
[27] = second compound 3.16 µM, first compound 0.316 µM
[28] = second compound 3.16 µM, first compound 1 µM
[29] = second compound 3.16 µM, first compound 3.16 µM
[30] = second compound 3.16 µM, first compound 10 µM
[31] = second compound 10 µM, first compound 0.0316 µM
[32] = second compound 10 µM, first compound 0.1 µM
[33] = second compound 10 µM, first compound 0.316 µM
[34] = second compound 10 µM, first compound 1 µM
[35] = second compound 10 µM, first compound 3.16 µM
[36] = second compound 10 µM, first compound 10 µM
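Note: spheroids exposed to agents for 7 days before the viability read.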

`C#Cc1c(F)ccc2cc(O)cc(-c3ncc4c(N5CC6CCC(C5)N6)nc(OCC56CCCN5CC(F)C6)nc4c3F)c12` (stereo unspecified) + Cc1nc(NC(=O)N2CCCC2C(N)=O)sc1-c1ccnc(C(C)(C)C(F)(F)F)c1 gave an IC50 (second compound 0.0316 µM) of over 10 µM, an IC50 (second compound 0.1 µM) of 6.56 µM and an IC50 (second compound 0.316 µM) of under 0.0316 µM. The IC50 (second compound 1 µM) was under 0.0316 µM, the IC50 (second compound 3.16 µM) was under 0.0316 µM and the IC50 (second compound 10 µM) was under 0.0316 µM. For the same compound, the viability, T/C [1] was 81.1%, the viability, T/C [2] was 89.1% and the viability, T/C [3] was 77.6%. The viability, T/C [4] was 80.9%, the viability, T/C [5] was 79.7% and the viability, T/C [6] was 57.5%. For the same compound, the viability, T/C [7] was 69.8%, the viability, T/C [8] was 66.5% and the viability, T/C [9] was 76.8%. The viability, T/C [10] was 74.2%, the viability, T/C [11] was 63.1% and the viability, T/C [12] was 41.1%. For the same compound, the viability, T/C [13] was 53.8%, the viability, T/C [14] was 47.3% and the viability, T/C [15] was 45.5%. It also gave a viability, T/C [16] of 46.5%, a viability, T/C [17] of 43.7% and a viability, T/C [18] of 24.7%. For the same compound, the viability, T/C [19] was 28.2%, the viability, T/C [20] was 28.3% and the viability, T/C [21] was 26.8%. The viability, T/C [22] was 29%, the viability, T/C [23] was 24.7% and the viability, T/C [24] was 19.9%. The viability, T/C [25] was 15.2%, the viability, T/C [26] was 13.1% and the viability, T/C [27] was 12.6%. It also gave a viability, T/C [28] of 14.5%, a viability, T/C [29] of 15.3% and a viability, T/C [30] of 8.2%. The viability, T/C [31] was 7.88%, the viability, T/C [32] was 7.4% and the viability, T/C [33] was 5.56%. For the same compound, the viability, T/C [34] was 7.83%, the viability, T/C [35] was 5.24% and the viability, T/C [36] was 0.61%.
In the case of `CC(Cn1ccc(-c2ccc(C#N)c(Cl)c2)n1)NC(=O)c1cc(C(C)O)[nH]n1` (stereo unspecified) + Cc1nc(NC(=O)N2CCCC2C(N)=O)sc1-c1ccnc(C(C)(C)C(F)(F)F)c1, the IC50 (second compound 0.0316 µM) is reported as over 10 µM, the IC50 (second compound 0.1 µM) is reported as over 10 µM and the IC50 (second compound 0.316 µM) is reported as under 0.0316 µM. For the same compound, the IC50 (second compound 1 µM) was under 0.0316 µM, the IC50 (second compound 3.16 µM) was under 0.0316 µM and the IC50 (second compound 10 µM) was under 0.0316 µM. For the same compound, the viability, T/C [1] was 86.2%, the viability, T/C [2] was 77.4% and the viability, T/C [3] was 85.3%. The viability, T/C [4] was 101%, the viability, T/C [5] was 100% and the viability, T/C [6] was 93.8%. For the same compound, the viability, T/C [7] was 73.8%, the viability, T/C [8] was 60.6% and the viability, T/C [9] was 67.9%. The viability, T/C [10] was 78.9%, the viability, T/C [11] was 70% and the viability, T/C [12] was 67.4%. For the same compound, the viability, T/C [13] was 45.4%, the viability, T/C [14] was 40.1% and the viability, T/C [15] was 50.6%. For the same compound, the viability, T/C [16] was 42.5%, the viability, T/C [17] was 55% and the viability, T/C [18] was 55.9%. The viability, T/C [19] was 30.8%, the viability, T/C [20] was 31% and the viability, T/C [21] was 28.8%. It also gave a viability, T/C [22] of 24.7%, a viability, T/C [23] of 28.8% and a viability, T/C [24] of 28%. It also gave a viability, T/C [25] of 13%, a viability, T/C [26] of 15.4% and a viability, T/C [27] of 15.5%. The viability, T/C [28] was 15.3%, the viability, T/C [29] was 16.2% and the viability, T/C [30] was 15.3%. The viability, T/C [31] was 6.67%, the viability, T/C [32] was 7.22% and the viability, T/C [33] was 6.48%. The viability, T/C [34] was 6.6%, the viability, T/C [35] was 9.29% and the viability, T/C [36] was 7.26%.
In the case of `CC1(C)CCC(Nc2ncc(C(F)(F)F)c(-c3c[nH]c4c(P(C)(C)=O)c(C#N)ccc34)n2)CN1` (stereo unspecified) + Cc1nc(NC(=O)N2CCCC2C(N)=O)sc1-c1ccnc(C(C)(C)C(F)(F)F)c1, the IC50 (second compound 0.0316 µM) is reported as under 0.0316 µM, the IC50 (second compound 0.1 µM) is reported as under 0.0316 µM and the IC50 (second compound 0.316 µM) is reported as under 0.0316 µM. It also gave an IC50 (second compound 1 µM) of under 0.0316 µM, an IC50 (second compound 3.16 µM) of under 0.0316 µM and an IC50 (second compound 10 µM) of under 0.0316 µM. It also gave a viability, T/C [1] of 35%, a viability, T/C [2] of 25.2% and a viability, T/C [3] of 21.7%. It also gave a viability, T/C [4] of 18.4%, a viability, T/C [5] of 7.32% and a viability, T/C [6] of 0.34%. It also gave a viability, T/C [7] of 27.1%, a viability, T/C [8] of 23.6% and a viability, T/C [9] of 25.7%. For the same compound, the viability, T/C [10] was 20.1%, the viability, T/C [11] was 5.12% and the viability, T/C [12] was 0.15%. The viability, T/C [13] was 23.2%, the viability, T/C [14] was 25.2% and the viability, T/C [15] was 23.2%. It also gave a viability, T/C [16] of 12.9%, a viability, T/C [17] of 4.57% and a viability, T/C [18] of 0.17%. The viability, T/C [19] was 18.1%, the viability, T/C [20] was 18.6% and the viability, T/C [21] was 14.2%. The viability, T/C [22] was 19.3%, the viability, T/C [23] was 3.08% and the viability, T/C [24] was 0.12%. It also gave a viability, T/C [25] of 11.7%, a viability, T/C [26] of 11.7% and a viability, T/C [27] of 8.82%. The viability, T/C [28] was 11.7%, the viability, T/C [29] was 1.63% and the viability, T/C [30] was 0.09%. It also gave a viability, T/C [31] of 5.1%, a viability, T/C [32] of 4.07% and a viability, T/C [33] of 4.35%. For the same compound, the viability, T/C [34] was 3.57%, the viability, T/C [35] was 0.59% and the viability, T/C [36] was 0.16%.
